Like-named read-outs stand apart in the source and are kept apart here.
Legend:
[1] = system: L. donovani intracellular amastigotes; assay: In vitro leishmanicidal activity, MTT colorimetric method, intracellular amastigotes; settings: read-out: EC50 (µM) L. donovani intracellular amastigotes
[2] = system: L. infantum promastigotes; assay: Leishmanicidal activity on promastigotes of clinical isolates of L. infantum; assay type: cell-based
Excerpt: (§1) The data represent the mean ± standard deviation of 3 independent experiments. ^b SI = selectivity index (EC50 THP-1 / EC50 parasite (amastigote form)). ^c not assayed. ^d Sensitivity data obtained in L. infantum LEM3049. ^eAmphotericin B. ^fMiltefosine.
(§2) ^aClinical isolates of L. infantum used: LEM 3049 as a reference line; LEM 3323, resistant to Sb^III; LEM 5159, resistant to miltefosine (MIL) and LEM 2126, resistant to MIL and paromomycin. Amphotericin B (AmB) was used as a reference drug. The data represent the mean ± standard deviation of 3 independent experiments.

[3] = system: THP-1 cells
[4] = system: L. infantum intracellular amastigotes; assay: Leishmanicidal activity on intracellular amastigotes of clinical isolates of L. infantum; assay type: cell-based
Excerpt: as §1, §2

[5] = system: L. donovani promastigotes; assay: In vitro leishmanicidal activity, MTT colorimetric method, promastigotes; settings: read-out: EC50 (µM) L. donovani promastigotes
[6] = system: T. brucei (strain s427 of T. b. brucei); assay: In vitro trypanocidal activity, sensitive strain s427; assay type: cell-based; settings: Trypanosoma brucei, read-out: EC50 (µM) T. brucei
[7] = system: T. brucei B48; assay: microbe, parasite or virus in culture; assay type: cell-based, T. b. brucei; design: RF: unit not given here; settings: for EC50: Trypanosoma brucei, read-out: EC50 (µM) T. brucei B48
[8] = system: THP-1 cells; assay: cells; settings: Homo sapiens, THP-1, read-out: EC50 (µM) THP-1 cells
[9] = in vitro; settings: human, liver S9 fraction
[10] = in vitro; settings: human, liver microsomes
[11] = human, liver microsomes
[12] = strain HU3, mean ± standard deviation of 3 independent experiments
[13] = selectivity index (EC50 THP-1 / EC50 parasite (amastigote form)), L. donovani
[14] = strain s427 of T. b. brucei, mean ± standard deviation of 3 independent experiments

## C[C@@H]1[C@H](O)[C@@H](C)/C=C/C=C/C=C/C=C/C=C/C=C/C=C/[C@H](O[C@@H]2O[C@H](C)[C@@H](O)[C@H](N)[C@@H]2O)C[C@@H]2O[C@](O)(C[C@@H](O)C[C@@H](O)[C@H](O)CC[C@@H](O)C[C@@H](O)CC(=O)O[C@H]1C)C[C@H](O)[C@H]2C(=O)O [AmB, Amphotericin B]
[1]; [12]
  EC50: 0.24 µM
[2]; L. infantum LEM3049, reference line, read-out: EC50 (µM) Promastigotes
  EC50: 0.06 ± 0.02 µM
[2]; L. infantum LEM3323, resistant to SbIII, read-out: EC50 (µM) Promastigotes
  EC50: 0.07 ± 0.03 µM
[2]; L. infantum LEM5159, resistant to miltefosine, read-out: EC50 (µM) Promastigotes
  EC50: 0.05 ± 0.01 µM
[2]; L. infantum LLM2126, resistant to MIL and paromomycin, read-out: EC50 (µM) Promastigotes
  EC50: 0.1 ± 0.02 µM
[3]; read-out: EC50 (µM) THP-1 cells, human THP-1 cells, cytotoxicity
  EC50: 27.9 µM
[3]; [13]
  SI: 116.0
[4]; L. infantum LEM3049, reference line, read-out: EC50 (µM) Intracellular amastigotes
  EC50: 0.17 ± 0.02 µM
[4]; L. infantum LEM3323, resistant to SbIII, read-out: EC50 (µM) Intracellular amastigotes
  EC50: 0.18 ± 0.02 µM
[4]; L. infantum LEM5159, resistant to miltefosine, read-out: EC50 (µM) Intracellular amastigotes
  EC50: 0.16 ± 0.03 µM
[4]; L. infantum LLM2126, resistant to MIL and paromomycin, read-out: EC50 (µM) Intracellular amastigotes
  EC50: 0.16 ± 0.01 µM
[5]; [12]
  EC50: 0.13 ± 0.02 µM

## N=C(N)c1ccc(/N=N/Nc2ccc(C(=N)N)cc2)cc1 [Dimin, Diminazene]
[6]
  EC50: 0.101 µM
[7]
  EC50: 1.33 ± 0.14 µM

## CCCCCCCCCCCCCCCCOP(=O)([O-])OCC[N+](C)(C)C [MIL, Miltefosine]
[1]; Leishmania donovani
  EC50: 0.91 ± 0.05 µM
[8]
  EC50: 26.2 ± 2.58 µM
[3]; [13]
  SI: 28.8
[5]; Leishmania donovani
  EC50: 6.51 ± 0.35 µM

## N=C(N)c1ccc(OCCCCCOc2ccc(C(=N)N)cc2)cc1 [Pent, Pentamidine]
[6]; [14]
  EC50: 0.0033 ± 0.0006 µM
[7]
  EC50: 0.55 ± 0.03 µM

## Cc1cc(O)ccc1C(=O)CCCCCCCCCCCCCCC[P+](c1ccccc1)(c1ccccc1)c1ccccc1.[Br-] [compound 2, (16-(4-hydroxy-2-methylphenyl)-16-oxohexadecyl)triphenylphosphonium bromide]
[1]; Leishmania donovani
  EC50: 0.1 ± 0.01 µM
[8]
  EC50: 2.45 ± 0.41 µM
[6]; [14]
  EC50: 0.043 µM
[3]
  SI: 24.5
[7]
  RF: 1.01
  EC50: 0.044 µM
[5]; Leishmania donovani
  EC50: 0.09 ± 0.01 µM

## Cc1cc(O)ccc1C(=O)CCCCCCCCCCCCCCC[P+](c1ccccc1)(c1ccccc1)c1ccccn1.[Br-] [compound 3, (16-(4-hydroxy-2-methylphenyl)-16-oxohexadecyl)diphenyl(pyridin-2-yl)phosphonium bromide]
[1]; Leishmania donovani
  EC50: 0.1 ± 0.02 µM
[8]
  EC50: 2.11 ± 0.12 µM
[6]; [14]
  EC50: 0.107 µM
[3]
  SI: 21.1
[7]
  RF: 0.90
  EC50: 0.096 µM
[5]; Leishmania donovani
  EC50: 0.28 ± 0.05 µM

## O=C(CCCCCCCCCCCCCCC[P+](c1cccc2ccccc12)(c1cccc2ccccc12)c1cccc2ccccc12)c1ccc(O)cc1O.[Br-] [compound 4, (16-(2,4-dihydroxyphenyl)-16-oxohexadecyl)tri(naphthalen-1-yl)phosphonium bromide]
[2]; Leishmania infantum, footnote d: sensitivity data obtained in L. infantum LEM3049, read-out: EC50 (µM) L. donovani promastigotes
  EC50: 3.54 ± 0.36 µM
[8]
  EC50: 12.8 ± 2.3 µM
[3]; selectivity index (EC50 THP-1 / EC50 parasite (amastigote form)), parasite data from L. infantum LEM3049
  SI: 10.3
[4]; Leishmania infantum, footnote d: sensitivity data obtained in L. infantum LEM3049, read-out: EC50 (µM) L. donovani intracellular amastigotes
  EC50: 1.25 ± 0.22 µM

## O=C(O)Cc1ccccc1Nc1c(Cl)cccc1Cl [diclofenac]
[9]
  half-life: < 30 min
[10]
  half-life: < 30 min
[11]
  intrinsic clearance: high

From EP3995502A1, “4-HYDROXYPHENYL PHOSPHONIUM SALTS WITH ANTI-PARASITIC PROPERTIES” (priority 2019, dated 2021)
